# Data reported in patent US7259140B2, “Heparin-binding peptides and uses thereof” (Thomas Jefferson University, priority 2003, dated 2007).
# “Also recorded” adds a separate entry of the source. Bridge positions count the residues as written; N and C are the ends. Peptide text beside a SMILES is read from it.
# Legend:
# [1] = system: anti-Factor Xa Activity of Unfractionated Heparin; experiment: Anti-Factor Xa assay: neutralization of unfractionated heparin in citrate or plasma in vitro; format: biochemical, human; settings: UFH 0.7 U/ml
# Outline: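 Chromogenic anti-Factor Xa kit run with UFH, enoxaparin (Lovenox) or danaparoid (Orgaran) in 0.32% citrate or citrated plasma from three volunteers. Heparin/ATIII complex formed, peptide added, then Factor Xa and dye substrate; absorbance at 405 nm, inversely proportional to remaining anti-Factor Xa activity.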
# [2] = system: Anti-Factor Xa Activity of the Non-Heparin Glycosaminoglycan Orgaran ®; experiment: Anti-Factor Xa assay: neutralization of Orgaran in citrate or plasma in vitro; format: biochemical, human
# Procedure: The ability of peptides such as (ARKKAAKA)3VLVLVLVL (SEQ ID NO:5) to neutralize the anti-Factor Xa activity of UFH and LMWH in vitro was tested using the Stachrom Heparin kit (Diagnostica Stago), a standard hematology laboratory assay used to measure the anti-Factor Xa activity of heparin. The assay was performed using the low molecular weight heparin enoxaparin sodium (Lovenox®, Aventis Pharmaceuticals, Inc.), unfractionated heparin (UFH), or the non-heparin glycosaminoglycan danaparoid sodium (Orgaran®, Organon Inc., West Orange, N.J.) in 0.32% citrate or in plasma anticoagulated with 0.32% citrate. Enoxaparin is commonly used clinically as a low molecular weight heparin (LMWH). Danaparoid is commonly used clinically as a non-heparin glycosaminoglycan anticoagulant. Currently, the only FDA approved drug to target UFH is protamine, which is not effective in vivo against LMWH or a non-heparin glycosaminoglycan such as danaparoid. Buffer and ATIII are added to form the heparin/ATIII complex, peptide is added, then Factor Xa, reporter dye substrate for Factor Xa activity, and stop solution, and the dye concentration is read at 405 nm. The absorbance of the dye increases with increasing Factor Xa activity, and thus is inversely proportional to the heparin (anti-Factor Xa activity) concentration. Peptides were tested in plasma obtained from three volunteers (A, B, and C). Platelet function inhibitors PG12 and theophylline were added to the blood immediately upon collection. […]
# platelets = experiment: Platelet aggregation with aggregation-inducing agents; format: cell-based, human; settings: 12 μg/ml; Lovenox 0.5 U/ml; collagen, ADP, ristocetin, epinephrine, SFFLRN, A23187
# Procedure: Plasma from six volunteers was tested with various aggregation inducing agents, at several concentrations of each agent, and with six different peptides of the invention. The effect of heparin-binding peptides of the invention on platelet aggregation was determined using standard procedures as previously described. The six peptides which were synthesized and tested were: (ARKKAAKA)4 (SEQ ID NO:31), ARKKAAKA(A16)ARKKAAKA (SEQ ID NO:30), (ARKKAAKA)3ARKKCAKA (SEQ ID NO:33), (ARKKAAKA)3VLVLVLVL (SEQ ID NO:5), C(ARKKAAKA)4C (SEQ ID NO:34), and (AKKARA)6 (SEQ ID NO:32).
# The aggregation-inducing agents tested were: collagen, adenosine diphosphate (ADP), ristocetin, epinephrine, the thrombin receptor peptide SFFLRN, and calcium ionophore A23187. Platelets were subjected to protamine, or to SEQ ID NOS:31, 33, 30, 5, 34, or 32 at 12 μg/ml, and Lovenox® at 0.5 U/ml. Platelet aggregation in response to agonists was monitored and percent aggregation was determined over a five minute interval.
# The agonist was added after equilibration of the platelets for one minute.
# [3] = system: unfractionated heparin (thrombin-induced clot formation); experiment: Thrombin neutralization assay: clotting time of citrated plasma in the presence of unfractionated heparin; format: biochemical, human; settings: for Time for clot formation: UFH 0.5 IU/ml
# Procedure: It was determined whether heparin-binding peptides of the invention can neutralize unfractionated heparin using the thrombin neutralization assay. The six peptides that were synthesized and used in this Example are: (ARKKAAKA)3VLVLVLVL (SEQ ID NO:5); (ARKKAAKA)(A16)(ARKKAAKA) (SEQ ID NO:30); (ARKKAAKA)4 (SEQ ID NO:31); (AKKARA)6 (SEQ ID NO:32); (ARKKAAKA)3(ARKKCAKA) (SEQ ID NO:33); and cyclized C(ARKKAAKA)4C (SEQ ID NO:34); Citrated plasma was pipetted into a glass tube. Thrombin was added, the tube was manually rotated, and clotting time was determined by observation of clot formation. Normal clotting time is 19-22 seconds.
# As a control, to assess the effect of heparin on clot formation, unfractionated heparin was added to the plasma at 0.5 IU anti-thrombin activity/ml and then thrombin was added. Clotting time in the presence of heparin alone was greater than 3 minutes.
# To test the effect of peptides, heparin and six peptides at the concentrations indicated in Table 4 were added to the plasma, the mixture was allowed to stand at room temperature for 1 minute, and thrombin was added. The time for the clot to form is indicated. Experiments were performed using plasma from three volunteers—A, B, and C.
# [4] = Hemodynamic effects in rats without prior Lovenox; settings: 2 mg per rat, no Lovenox
# Procedure: Rats were sedated, and catheters were inserted into the femoral vein and femoral artery. The femoral artery catheter was hooked up to the computerized monitoring system, and injections were made through the femoral vein. Peptides were injected into rats without prior injection of Lovenox. Two or more rats (300-350 grams) were treated with 2 mg protamine or peptide.
# At the times indicated in the figures, the following actions were taken: administration of saline to insure that the animal and intubations were stable; administration of test peptide or protamine alone; then administration of protamine.
# [5] = Hemodynamic effects in rats after administration of the LMWH Lovenox; settings: in the presence of LMWH Lovenox
# Procedure: Next, experiments were performed in which the animals were treated with the peptides after the administration of the LMWH Lovenox®, as would happen in the clinical situation, because binding of peptides to LMWH would be expected to reduce the effects of the peptides on hemodynamic function.
smiles,measurement,setting,value
"C[C@@H]1NC(=O)[C@H](C)NC(=O)[C@H](CCCCN)NC(=O)[C@H](CCCCN)NC(=O)[C@H](CCCNC(=N)N)NC(=O)[C@H](C)NC(=O)[C@H](C)NC(=O)[C@H](CCCCN)NC(=O)[C@H](C)NC(=O)[C@H](C)NC(=O)[C@H](CCCCN)NC(=O)[C@H](CCCCN)NC(=O)[C@H](CCCNC(=N)N)NC(=O)[C@H](C)NC(=O)[C@@H](N)CSSC[C@@H](C(=O)O)NC(=O)[C@H](C)NC(=O)[C@H](CCCCN)NC(=O)[C@H](C)NC(=O)[C@H](C)NC(=O)[C@H](CCCCN)NC(=O)[C@H](CCCCN)NC(=O)[C@H](CCCNC(=N)N)NC(=O)[C@H](C)NC(=O)[C@H](C)NC(=O)[C@H](CCCCN)NC(=O)[C@H](C)NC(=O)[C@H](C)NC(=O)[C@H](CCCCN)NC(=O)[C@H](CCCCN)NC(=O)[C@H](CCCNC(=N)N)NC(=O)[C@H](C)NC(=O)[C@H](C)NC(=O)[C@H](CCCCN)NC1=O [C(ARKKAAKA)4C, cyclized C(ARKKAAKA)4C] (H-CARKKAAKAARKKAAKAARKKAAKAARKKAAKAC-OH; disulfide 1-34)",Unfractionated Heparin Neutralized,"[1]; 1 μg/ml Peptide, A Plasma",0.157 ± 0.032 U/ml
same,Unfractionated Heparin Neutralized,"[1]; 1 μg/ml Peptide, B Plasma",0.194 ± 0.066 U/ml
same,Unfractionated Heparin Neutralized,"[1]; 1 μg/ml Peptide, C Plasma",0.078 ± 0.027 U/ml
same,Unfractionated Heparin Neutralized,"[1]; 1 μg/ml Peptide, Citrate",0.131 ± 0.070 U/ml
same,Unfractionated Heparin Neutralized,"[1]; 6 μg/ml Peptide, A Plasma",0.442 ± 0.031 U/ml
same,Unfractionated Heparin Neutralized,"[1]; 6 μg/ml Peptide, B Plasma",0.426 ± 0.064 U/ml
same,Unfractionated Heparin Neutralized,"[1]; 6 μg/ml Peptide, C Plasma",0.447 ± 0.054 U/ml
same,Unfractionated Heparin Neutralized,"[1]; 6 μg/ml Peptide, Citrate",0.590 ± 0.024 U/ml
same,Unfractionated Heparin Neutralized,"[1]; 12 μg/ml Peptide, A Plasma",0.579 ± 0.128 U/ml
same,Unfractionated Heparin Neutralized,"[1]; 12 μg/ml Peptide, B Plasma",0.552 ± 0.056 U/ml
same,Unfractionated Heparin Neutralized,"[1]; 12 μg/ml Peptide, C Plasma",0.583 ± 0.066 U/ml
same,Unfractionated Heparin Neutralized,"[1]; 12 μg/ml Peptide, Citrate",0.560 ± 0.012 U/ml
same,Unfractionated Heparin Neutralized,"[1]; 60 μg/ml Peptide, A Plasma",0.605 ± 0.088 U/ml
same,Unfractionated Heparin Neutralized,"[1]; 60 μg/ml Peptide, B Plasma",0.566 ± 0.036 U/ml
same,Unfractionated Heparin Neutralized,"[1]; 60 μg/ml Peptide, C Plasma",0.572 ± 0.076 U/ml
same,Unfractionated Heparin Neutralized,"[1]; 60 μg/ml Peptide, Citrate",0.560 ± 0.018 U/ml
same,Unfractionated Heparin Neutralized,"[1]; 120 μg/ml Peptide, A Plasma",0.618 ± 0.051 U/ml
same,Unfractionated Heparin Neutralized,"[1]; 120 μg/ml Peptide, B Plasma",0.512 ± 0.032 U/ml
same,Unfractionated Heparin Neutralized,"[1]; 120 μg/ml Peptide, C Plasma",0.580 ± 0.051 U/ml
same,Unfractionated Heparin Neutralized,"[1]; 120 μg/ml Peptide, Citrate",0.530 ± 0.019 U/ml
same,Orgaran Neutralized,"[2]; 1 μg/ml Peptide, A Plasma",0.016 ± 0.012 U/ml
same,Orgaran Neutralized,"[2]; 1 μg/ml Peptide, B Plasma",0.038 ± 0.036 U/ml
same,Orgaran Neutralized,"[2]; 1 μg/ml Peptide, C Plasma",0.008 ± 0.005 U/ml
same,Orgaran Neutralized,"[2]; 1 μg/ml Peptide, Citrate",0.072 ± 0.052 U/ml
same,Orgaran Neutralized,"[2]; 6 μg/ml Peptide, A Plasma",0.074 ± 0.049 U/ml
same,Orgaran Neutralized,"[2]; 6 μg/ml Peptide, B Plasma",0.027 ± 0.016 U/ml
same,Orgaran Neutralized,"[2]; 6 μg/ml Peptide, C Plasma",0.030 ± 0.009 U/ml
same,Orgaran Neutralized,"[2]; 6 μg/ml Peptide, Citrate",0.099 ± 0.062 U/ml
same,Orgaran Neutralized,"[2]; 12 μg/ml Peptide, A Plasma",0.050 ± 0.031 U/ml
same,Orgaran Neutralized,"[2]; 12 μg/ml Peptide, B Plasma",0.082 ± 0.029 U/ml
same,Orgaran Neutralized,"[2]; 12 μg/ml Peptide, C Plasma",0.063 ± 0.025 U/ml
same,Orgaran Neutralized,"[2]; 12 μg/ml Peptide, Citrate",0.180 ± 0.023 U/ml
same,Orgaran Neutralized,"[2]; 60 μg/ml Peptide, A Plasma",0.287 ± 0.033 U/ml
same,Orgaran Neutralized,"[2]; 60 μg/ml Peptide, B Plasma",0.282 ± 0.020 U/ml
same,Orgaran Neutralized,"[2]; 60 μg/ml Peptide, C Plasma",0.250 ± 0.030 U/ml
same,Orgaran Neutralized,"[2]; 60 μg/ml Peptide, Citrate",0.319 ± 0.016 U/ml
same,Orgaran Neutralized,"[2]; 120 μg/ml Peptide, A Plasma",0.389 ± 0.118 U/ml
same,Orgaran Neutralized,"[2]; 120 μg/ml Peptide, B Plasma",0.374 ± 0.062 U/ml
same,Orgaran Neutralized,"[2]; 120 μg/ml Peptide, C Plasma",0.335 ± 0.012 U/ml
same,Orgaran Neutralized,"[2]; 120 μg/ml Peptide, Citrate",0.340 ± 0.010 U/ml
same,effect on platelet aggregation,platelets,no significant inhibition or enhancement of aggregation
same,effectiveness in thrombin neutralization assay,[3],effective
same,Time for clot formation,"[3]; 0.35 μg peptide/0.1 ml, plasma A",37.67 ± 5.25 s
same,Time for clot formation,"[3]; 0.40 μg peptide/0.1 ml, plasma A",29.00 ± 0.82 s
same,Time for clot formation,"[3]; 0.40 μg peptide/0.1 ml, plasma B",47.67 ± 8.34 s
same,Time for clot formation,"[3]; 0.40 μg peptide/0.1 ml, plasma C",56.33 ± 1.70 s
same,Time for clot formation,"[3]; 0.50 μg peptide/0.1 ml, plasma A",23.67 ± 2.05 s
same,Time for clot formation,"[3]; 0.50 μg peptide/0.1 ml, plasma B",34.33 ± 1.25 s
same,Time for clot formation,"[3]; 0.50 μg peptide/0.1 ml, plasma C",43.00 ± 2.45 s
same,effect on blood pressure,[4],did not cause a change in blood pressure
same,effect on blood pressure and heart rate / toxicity,[5],"no, or minimal, adverse effects on blood pressure or heart rate; also recorded: not toxic"
same,effect on blood pressure and heart rate / toxicity,[5]; listed as C(ARKKAAKA)4C-cyclized,All rats tested showed no response
